{"source": "patent US11136551B2", "about": "“In vitro method of differentiating a human pluripotent stem cell population into a cardiomyocyte cell population” (Ncardia B.V., priority 2015, dated 2021)", "key": {"[1]": {"tested_on": "human pluripotent stem cells", "experiment": "In vitro differentiation of human pluripotent stem cells into cardiomyocytes: yield and progress of differentiation", "assay_type": "cell-based", "details": "in combination with XAV-939, relative to IWP-L6", "experimental": "IGF may be added during any stage of the method of differentiating the human pluripotent stem cell population. IGF may, for example, be provided to the human pluripotent stem cell population immediately after plating or passaging the cells (i.e. after transferring of a small number of cells into a new vessel for cultivating) and before, for example, step a) is performed (the contacting of the cells with at least the Wnt-signaling agonist), or before step b) is performed (the contacting of the cells with XAV-939 and IWP-L6 and/or C-59). […]\nFor differentiation, cells were seeded in 12-well plates at density of 60,000 cells per well or a split ratio that was empirically determined to give 30-80% confluence after 4 days. […]\nCell numbers were determined with a Fuchs-Rosenthal counting chamber. […] Cells were counted and number of cells was determined using following equations: cells/ml=average count per square×dilution factor×5000 total cells=cells/ml×total original volume of cell suspension from which sample was taken. […] GFP fluorescence reports the expression of the endogenous NKX2.5 gene and enables identification/quantification of hPSC-derived cardiomyocytes during differentiation. Method of Measuring TNNT2 (Using FACS) The percentage TNNT2 expressing cells was measured by flow cytometric analysis. […]"}, "[2]": {"tested_on": "hIPSC lines", "experiment": "Percentage of cardiomyocytes by flow cytometry for Troponin-T (TNNT-2) at day 14", "assay_type": "cell-based, human", "details": "for differentiation efficiency (TNNT-2 positive cells): FIG. 5, day 14", "experimental": "For differentiation, cells were seeded in 12-well plates at density of 60,000 cells per well or a split ratio that was empirically determined to give 30-80% confluence after 4 days. Culture media was […] days with a differentiation media as disclosed herein, for example containing 46.5% IMDM (Gibco 21056), 0.25% Bovostar BSA, 46.5% Ham's F12 with Glutamax, 2 mM Glutamax, 450 nM […], 0.05 mg/ml ascorbic acid, 0.5% 5000 U/ml Pen/Strep (Gibco 12070), 0.01% 1000* Trace elements mix B (Cellgro 99-176-CL), 0.1% 1000* Trace elements mix C (Cellgro 99-176-CL). In several experiments 0.1% ITS-x was used from day 4-14, i.e. during differentiation of the cells. Cell numbers were determined with a Fuchs-Rosenthal counting chamber. Briefly, cells grown in monolayer cultures were detach from surface of plate using TrypLETM Select Enzyme (Life Technologies). A uniform cell suspension was transferred to the edge of hemocytometer counting chamber. Cells were counted and number of cells was determined using following equations: cells/ml=average count per square×dilution factor×5000 total cells=cells/ml×total original volume of cell suspension from which sample was taken. Method of Measuring NKX2.5 NKX-GFP reporter hESC and iPSC cells have been described previously. These cells express the fluorescent protein GFP under the control of the endogenous NKX2-5 promoter. GFP+ve cells mark cardiomyocytes (Elliott D A et al. Nat. Methods, 8 (2011), pp. 1037-1040; van den Berg C W et al., Development. 2015 Jul. 24. pii: dev.123810. [Epub ahead of print]). NKX 2.5 is transcription factor essential for heart development and it is expressed in the heart throughout life. GFP fluorescence reports the expression of the endogenous NKX2.5 gene and enables identification/quantification of hPSC-derived cardiomyocytes during differentiation. Method of Measuring TNNT2 (Using FACS) The percentage TNNT2 expressing cells was measured by flow cytometric analysis. Briefly, cells were dissociated with TrypLETM Select Enzyme (Life Technologies), washed with PBS, fixed and permeabilized with FIX & PERM® Cell Fixation and Permeabilization Kit (Life Technologies). Samples were incubated with Troponin T (TNNT2), Cardiac Isoform Ab-1, Mouse Monoclonal Antibody (ThermoFisher, MS-295-P1; at 1:1000 dilution) followed by incubation with secondary antibody Donkey Anti-mouse APC (Jackson Immuno, 715-136-151; at 1:500 dilution) both diluted in Fix&Perm Medium B. Samples were analyzed on a NovocyteTM Flow Cytometer (ACEA Bioscicences) or a MACSQuant VYB instrument (Miltenyi Biotech). […] Two […] cultured on feeders in KOSR (InvitroGen)/FGF supplemented DMEM-F12. To start differentiation, cells were dissociated using Accutase and resuspended in mTesR at a concentration of 60,000/ml cells, the cell suspension was seeded onto Matrigel coated 12-well plates. Cells were maintained for 4 days before onset of differentiation. Cells were treated for 2 days with 5 microMolar CHIR99021, followed by 2 days culture in the presence of specific Wnt inhibiting small molecules, next the cells were cultured for 10 days in differentiation medium. Percentage of cardiomyocytes (FIG. 4A; % TNNT2 positive cells at day 14) was determined at day 14 of differentiation using flow cytometry for the pan-cardiac marker Troponin-T (TNNT-2). […] Presence and absence or concentration have no significant effect on the total number of cells (FIG. 4B; cell count at day 14, in million cells/well). […]"}, "[3]": {"tested_on": "dishevelled 2 (Dvl2)", "details": "HEK293 cells; cited from earlier work"}, "[4]": {"tested_on": "NKX2-5-GFP reporter stem cells", "experiment": "Percentage of cardiomyocytes by flow cytometry of GFP positive cells at day 14", "assay_type": "cell-based, human", "details": "FIG. 3, reduction of IWP-L6 from 2 microMolar to 0.25 microMolar", "experimental": "For differentiation, cells were seeded in 12-well plates at density of 60,000 cells per well or a split ratio that was empirically determined to give 30-80% confluence after 4 days. Culture media was […] days with a differentiation media as disclosed herein, for example containing 46.5% IMDM (Gibco 21056), 0.25% Bovostar BSA, 46.5% Ham's F12 with Glutamax, 2 mM Glutamax, 450 nM […], 0.05 mg/ml ascorbic acid, 0.5% 5000 U/ml Pen/Strep (Gibco 12070), 0.01% 1000* Trace elements mix B (Cellgro 99-176-CL), 0.1% 1000* Trace elements mix C (Cellgro 99-176-CL). In several experiments 0.1% ITS-x was used from day 4-14, i.e. during differentiation of the cells. Cell numbers were determined with a Fuchs-Rosenthal counting chamber. […] Cells were counted and number of cells was determined using following equations: cells/ml=average count per square×dilution factor×5000 total cells=cells/ml×total original volume of cell suspension from which sample was taken. […] GFP fluorescence reports the expression of the endogenous NKX2.5 gene and enables identification/quantification of hPSC-derived cardiomyocytes during differentiation. Method of Measuring TNNT2 (Using FACS) The percentage TNNT2 expressing cells was measured by flow cytometric analysis. […] Percentage of cardiomyocytes was determined at day 14 of differentiation using flow cytometry for detection/quantification of GFP positive cells. […]"}}}
{"smiles": "Cc1cc(-c2ccc(CC(=O)Nc3ccc(-c4cccnc4)cc3)cc2)ccn1", "note": "[C59, 2-[4-(2-methylpyridin-4-yl)phenyl]-N-(4-pyridin-3-ylphenyl)acetamide]", "values": [{"measurement": "toxicity to the human pluripotent stem cells", "setting": "[1]", "value": "more toxic"}, {"measurement": "yield of cell obtained with the method", "setting": "[1]; data not shown", "value": "reduced yield"}]}
{"smiles": "O=C(CSc1nc2c(c(=O)n1-c1ccccc1)SCC2)Nc1ccc(-c2ccccc2)cn1", "note": "[IWP-L6, 2-[(4-oxo-3-phenyl-6,7-dihydrothieno[3,2-d]pyrimidin-2-yl)sulfanyl]-N-(5-phenylpyridin-2-yl)acetamide]", "values": [{"measurement": "differentiation (% TNNT2 positive cells at day 14)", "setting": "[2]; FIG. 4A, addition of IWP-L6 at 0.25 microMolar to XAV939", "value": "further improves the differentiation"}, {"measurement": "differentiation efficiency (TNNT-2 positive cells)", "setting": "[2]; alone", "value": "about 70%"}, {"measurement": "phosphorylation of dishevelled 2 (Dvl2)", "setting": "[3]", "value": "suppress phosphorylation of dishevelled 2 (Dvl2)"}, {"measurement": "differentiation efficiency (GFP positive cells)", "setting": "[4]", "value": "increases the differentiation efficiency even further"}]}
{"smiles": "O=c1[nH]c(-c2ccc(C(F)(F)F)cc2)nc2c1CSCC2", "note": "[XAV-939, 3,5,7,8-Tetrahydro-2-[4-(trifluoromethyl)phenyl]-4H-thiopyrano[4,3-d]pyrimidin-4-one]", "values": [{"measurement": "differentiation efficiency (% TNNT2 positive cells at day 14)", "setting": "[2]; FIG. 4A, further increase of concentration above 5 microMolar", "value": "reduces differentiation efficiency"}, {"measurement": "optimal concentration (% TNNT2 positive cells at day 14)", "setting": "[2]; FIG. 4A, titration of XAV-939, two hIPSC lines", "value": 5, "unit": "microMolar"}, {"measurement": "differentiation efficiency (TNNT-2 positive cells)", "setting": "[2]; addition of XAV939 to IWP-L6", "value": "further increased"}]}
